Like-named read-outs stand apart in the source and are kept apart here.
Tests used:
[1] = system: MDCK cells
Description: MDCK cells were maintained in EMEM media supplemented with 10% Fetal Bovine Serum and 1% streptomycin. […] Both cell lines were incubated at 37° C. and 5% CO2 until confluency.
For experiments, both cell lines were incubated in triplicate with an endpoint of 72 hours. Treatment concentrations were made using a stock solution of 100 mmol/L potassium bitartrate in complete media. Final treatment concentrations of 5, 10, 25, 50, 75, and 100 mmol/L were reached via serial dilution. To mimic physiological pH of 7.4, 10N NaOH and 10M HCl were used. A positive control of 0.005% hydrogen peroxide was also used.
Release of lactate dehydrogenase (LDH) from the cytosol in response to plasma membrane damage is a common measure of necrotic cell death and was measured utilizing the LDH-Cytotoxicity assay kit according to the manufacturer's protocol (BioVision, Milpitas, CA). Briefly, media from treated MDCK or HK-2 cells was removed and samples placed into a 96 well plate in duplicate. A mixture of WST kit reagent and buffer in a 25:1 ratio was then added to each well. The plate was covered and allowed to incubate at room temperature for 30 minutes. Absorbance was read at 450 nm. To normalize for potential cell confluency differences, cells were solubilized with 0.05% Triton-X, and cellular protein was analyzed using the bicinchoninic acid (BCA) method.

[2] = system: MDCK cells; test: ATP depletion in MDCK cells (CellTiter Glo assay); format: cell-based, canine
Description: TTA concentration groups were compared to media alone (Neg.) using one-way ANOVA followed by a Dunnett's post-hoc test. (n=3/group). * p<0.05; ** p<0.005; *** p<0.001; **** p<0.0001.
500 μM probenecid (PBD) protected MDCK cells from 25 mM and 50 mM TTA-induced ATP depletion at 12 & 72 h, assessed using a CellTiter Glo® assay. Groups were compared using one-way ANOVA followed by a Tukey's post-hoc test. (n=3); ***p<0.001, **** p<0.0001 compared to media; $p<0.05 compared to 25 or 50 mM TTA alone.
ATP depletion was determined in MDCK cells as another measure of cytotoxicity of TTA. The results shown in FIG. 3 indicate that ATP depletion was both time-and dose-dependent. In FIG. 4, it can be observed that dose-response curves were obtained for TTA-induced ATP depletion, and the cells became more sensitive at each increasing dose, and with increasing time of exposure to TTA. This established the MDCK cell culture model as a valid predictor of TTA-induced renal pathology in canine kidney in vitro.

[3] = system: MDCK cells transfected with human OAT-4; test: LDH release in hOAT-4 transfected MDCK cells; format: cell-based, canine; conditions: 50 mM TTA, 72 h
Description: In order to assess the role that OAT transporters may play in tartaric acid induced nephrotoxicity, MDCK cells were transfected with human OAT-4 and treated with 50 mmol/L of potassium bitartrate. Human (h)OAT-4 cDNA (GenScript, Piscataway, NJ) was purchased and transformed using E. coli (New England Biolabs, Ipswich, MA) to produce higher amounts of cDNA to be used in transfection. E. coli was transformed per New England Biolab's protocol. Briefly, E. coli was thawed, plasmid cDNA was added, and then mixed with manufacturer's SOC solution. The mixture was allowed to incubate at 37° C. for 60 minutes, and was then spread on LB agar ampicillin-100 plates (Sigma Aldrich, St. Louis, MO) and allowed to incubate for 24 hours at 37° C. Colonies were then collected, placed into a solution of LB […] ampicillin-100 broth, and incubated overnight.
Human OAT-4 plasmid preparation with the amplified E. coli was completed using the PureYield Plasmid Miniprep System (Promega, Madison, WI) following manufacturers protocol. Briefly, 4 mL of culture was collected and centrifuged. The supernatant was removed, and the cell pellet was resuspended in 600 μL 1xPBS. […] The concentration of the elucidated cDNA was then measured using a NanoDrop spectrophotometer (yielding cDNA ranging from 264.8 to 762.8 ng/uL). […]
(§1) Absorbance was read at 450 nm.

[4] = system: canines; conditions: grape ingestion, tartaric acid equivalent; cited from earlier work
[5] = system: MDCK cells; test: Probenecid prevention of tartaric acid induced LDH release in MDCK cells
Description: When conducting experiments with probenecid (Sigma Aldrich, St. Louis, MO), a stock solution of 2 mmol/L in complete media was made at pH 7.4, then mixed with either complete media or 100 mmol/L tartaric acid to yield both solutions of 1 mmol/L and 500 μmol/L and solutions of 1 mmol/L probenecid+50 mmol/L potassium bitartrate, as well as 500 μmol/L+50 mmol/L potassium bitartrate. MDCK cells were treated and allowed to incubate for 72 hours.
as §1
As TTA is a common, dietary dicarboxylic acid, it is believed to be renally excreted via organic anion-handling transporters. Therefore, to assess the role of OAT-mediated TTA transport, MDCK cells were exposed to 50 mM tartaric acid alone or in combination with 1 mM or 0.5 mM probenecid; a known OAT-1 inhibitor.

[6] = system: HK-2 cells; test: LDH release cytotoxicity of tartaric acid in HK-2 cells; format: cell-based, human
Description: as §1

[7] = system: renal tubular excretion; conditions: canines, effect plateaus at this dose; cited from earlier work
[8] = system: dogs; conditions: cited from earlier work

O=C(O)C(O)C(O)C(=O)O (stereo not drawn) [TTA, tartaric acid]
LDH release ([1]; MDCK cells, 10 mM, 72 h, pH 7.4): 1.769 | LDH release ([1]; MDCK cells, 25 mM, 72 h, pH 7.4): 1.472 | LDH release ([1]; MDCK cells, 50 mM, 72 h, pH 7.4): 1.646 | LDH release ([1]; MDCK cells, 75 mM, 72 h, pH 7.4): 2.540 | LDH release ([1]; MDCK cells, 100 mM, 72 h, pH 7.4): 1.778 | lowest concentration with significant increase in TTA-induced cytotoxicity ([1]; MDCK cells, 72 h of exposure, vs controls): 10 mmol/L | LDH release ([1]; non-transfected MDCK cells, 50 mM TTA, 72 h (transfection experiment)): 2.807 | ATP depletion ([2]; function of time and dose of TTA exposure): induced significant ATP depletion | LDH release [3]: 1.213 | ingested dose (as tartaric acid) resulting in significant nephrotoxicity [4]: 196 to 1484 mg/kg | LDH release ([5]; 50 mM TTA alone, 72 h (probenecid experiment)): 4.302 | LDH release ([6]; HK-2 cells, 72 h, pH 7.4, 5-100 mmol/L, vs negative control): no statistically significant increase in LDH release | TTA-induced LDH release, HK-2 vs. MDCK cells ([6]; same exposure concentrations across species, two-way ANOVA): no significant difference

CCCN(CCC)S(=O)(=O)c1ccc(C(=O)O)cc1 [probenecid, 4-(dipropylsulfamoyl)benzoic acid]
protection from TTA-induced ATP depletion ([2]; 500 μM probenecid, 25 mM and 50 mM TTA, 12 & 72 h): protected | oral dose enough to completely suppress renal tubular excretion [7]: 6 mg/kg | prevention of TTA-induced cytotoxicity ([5]; 500 μM and 1 mM probenecid): completely prevented | LDH release ([5]; 0.5 mM probenecid + 50 mM TTA, 72 h): 1.658 | LDH release ([5]; 1 mM probenecid + 50 mM TTA, 72 h): 1.518 | cell death by probenecid alone ([5]; probenecid alone at 0.5 mM or 1 mM, 72 h): did not induce significant cell death | LD50 ([8]; IV): 270 mg/kg | therapeutic index [8]: high

— patent publication US20260165990A1, “Treatment of Tartaric Acid Toxicity in Dogs with Probenecid” (priority 2022, published 2026)
